Laboratory results reported in ChEMBL document CHEMBL1777706, “Discovery of selective and orally available spiro-3-piperidyl ATP-competitive MK2 inhibitors” (Bioorg Med Chem Lett, 2011).
Activity calls are given as the source filed them. The rule behind the calls is not given here.

Target: Mitogen-activated protein kinase 1 (Homo sapiens) (UniProt P28482)
Test: Inhibition of ERK2 at 1 uM

Chain of Mitogen-activated protein kinase 1 (Homo sapiens) (P28482 whole entry, looked up): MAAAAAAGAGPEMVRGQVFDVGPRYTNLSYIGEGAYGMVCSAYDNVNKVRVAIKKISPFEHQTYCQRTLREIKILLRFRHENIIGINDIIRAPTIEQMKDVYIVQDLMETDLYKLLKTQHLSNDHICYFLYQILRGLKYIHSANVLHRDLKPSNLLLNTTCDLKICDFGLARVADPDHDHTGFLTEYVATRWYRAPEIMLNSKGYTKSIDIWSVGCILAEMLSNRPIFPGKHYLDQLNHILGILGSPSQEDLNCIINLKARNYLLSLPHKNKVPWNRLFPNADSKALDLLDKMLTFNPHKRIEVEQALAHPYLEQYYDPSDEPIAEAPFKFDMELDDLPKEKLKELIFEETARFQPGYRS

inhibition | Structure (SMILES)
> 80% | O=C1NCC2(CCOCC2)c2[nH]c(-c3ccnc(-c4ccc5c(c4)OCO5)n3)cc21
> 80% | COc1cncc(-c2nccc(-c3cc4c([nH]3)[C@]3(CCCNC3)CNC4=O)n2)c1
> 80% | O=C1NCC2(CCCNC2)c2[nH]c(-c3ccnc(-c4cccnc4)n3)cc21 (racemic)
> 80% | CC(=O)c1cccc(-c2nccc(-c3cc4c([nH]3)C3(CCNCC3)CNC4=O)n2)c1
> 80% | O=C1NC[C@@]2(CCCNC2)c2[nH]c(-c3ccnc(-c4ccc5c(c4)OCO5)n3)cc21
> 80% | CC(=O)c1ccc(-c2nccc(-c3cc4c([nH]3)C3(CCNCC3)CNC4=O)n2)cc1

Target: Serine/threonine-protein kinase Chk2 (Homo sapiens) (UniProt O96017)
Sequence (O96017 whole entry): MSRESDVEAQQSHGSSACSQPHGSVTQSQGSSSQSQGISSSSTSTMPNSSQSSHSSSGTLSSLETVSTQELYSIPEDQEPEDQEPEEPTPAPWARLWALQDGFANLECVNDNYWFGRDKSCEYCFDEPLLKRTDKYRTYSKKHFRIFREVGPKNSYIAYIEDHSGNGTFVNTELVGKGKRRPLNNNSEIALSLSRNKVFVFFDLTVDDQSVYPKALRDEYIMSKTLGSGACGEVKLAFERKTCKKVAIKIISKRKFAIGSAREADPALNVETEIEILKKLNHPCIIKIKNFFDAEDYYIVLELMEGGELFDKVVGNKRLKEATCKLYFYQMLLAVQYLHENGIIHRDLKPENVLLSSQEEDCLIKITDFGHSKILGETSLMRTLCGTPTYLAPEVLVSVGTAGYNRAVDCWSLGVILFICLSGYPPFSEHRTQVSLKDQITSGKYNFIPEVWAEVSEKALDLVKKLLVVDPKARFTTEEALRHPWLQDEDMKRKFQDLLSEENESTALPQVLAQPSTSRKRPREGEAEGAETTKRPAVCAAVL
Test: Inhibition of CHK2 at 1 uM

inhibition | Structure (SMILES)
> 80% | O=C1NCC2(CCOCC2)c2[nH]c(-c3ccnc(-c4ccc5c(c4)OCO5)n3)cc21
> 80% | COc1cncc(-c2nccc(-c3cc4c([nH]3)[C@]3(CCCNC3)CNC4=O)n2)c1
> 80% | O=C1NCC2(CCCNC2)c2[nH]c(-c3ccnc(-c4cccnc4)n3)cc21 (racemic)
> 80% | CC(=O)c1cccc(-c2nccc(-c3cc4c([nH]3)C3(CCNCC3)CNC4=O)n2)c1
> 80% | O=C1NC[C@@]2(CCCNC2)c2[nH]c(-c3ccnc(-c4ccc5c(c4)OCO5)n3)cc21
> 80% | CC(=O)c1ccc(-c2nccc(-c3cc4c([nH]3)C3(CCNCC3)CNC4=O)n2)cc1

Target: T1, MAP kinase-activated protein kinase 2 (Homo sapiens, UniProt P49137)
T1 sequence (P49137 whole entry): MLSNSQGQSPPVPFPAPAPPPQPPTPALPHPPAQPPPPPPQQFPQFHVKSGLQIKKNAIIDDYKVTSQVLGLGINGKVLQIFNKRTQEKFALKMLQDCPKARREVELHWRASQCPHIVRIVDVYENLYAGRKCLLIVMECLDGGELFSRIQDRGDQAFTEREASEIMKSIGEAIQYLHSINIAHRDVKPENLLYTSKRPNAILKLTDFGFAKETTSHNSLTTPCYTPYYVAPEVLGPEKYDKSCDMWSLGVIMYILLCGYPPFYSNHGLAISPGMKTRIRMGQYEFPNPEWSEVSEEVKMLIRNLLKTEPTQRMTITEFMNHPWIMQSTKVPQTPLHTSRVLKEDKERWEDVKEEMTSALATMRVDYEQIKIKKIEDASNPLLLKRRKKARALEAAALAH
Test: Inhibition of MK2 pretreated for 30 mins before fluorescein labeled substrate peptide addition measured after 2 hrs by IMAP assay

EC50 | Structure (SMILES)
724 nM | O=C1NCC2(CCOCC2)c2[nH]c(-c3ccnc(-c4ccc5c(c4)OCO5)n3)cc21
9.3 nM | COc1cncc(-c2nccc(-c3cc4c([nH]3)[C@]3(CCCNC3)CNC4=O)n2)c1
18 nM | O=C1NCC2(CCCNC2)c2[nH]c(-c3ccnc(-c4cccnc4)n3)cc21 (racemic)
11 nM | CC(=O)c1cccc(-c2nccc(-c3cc4c([nH]3)C3(CCNCC3)CNC4=O)n2)c1
7.4 nM | O=C1NC[C@@]2(CCCNC2)c2[nH]c(-c3ccnc(-c4ccc5c(c4)OCO5)n3)cc21
9.8 nM | CC(=O)c1ccc(-c2nccc(-c3cc4c([nH]3)C3(CCNCC3)CNC4=O)n2)cc1

Target: T1, MAP kinase-activated protein kinase 2
Test: Inhibition of MK2 in LPS-stimulated human THP1 cells assessed as inhibition of Hsp27 phosphorylation pretreated 60 mins before LPS challenge measured after 10 mins
Assay type: cell-based, THP-1

EC50 | Structure (SMILES)
1100 nM | COc1cncc(-c2nccc(-c3cc4c([nH]3)[C@]3(CCCNC3)CNC4=O)n2)c1
2100 nM | O=C1NCC2(CCCNC2)c2[nH]c(-c3ccnc(-c4cccnc4)n3)cc21 (racemic)
500 nM | O=C1NC[C@@]2(CCCNC2)c2[nH]c(-c3ccnc(-c4ccc5c(c4)OCO5)n3)cc21

Target: T2, Serine/threonine-protein kinase 17A (Homo sapiens) (UniProt Q9UEE5)
T2 sequence (whole entry): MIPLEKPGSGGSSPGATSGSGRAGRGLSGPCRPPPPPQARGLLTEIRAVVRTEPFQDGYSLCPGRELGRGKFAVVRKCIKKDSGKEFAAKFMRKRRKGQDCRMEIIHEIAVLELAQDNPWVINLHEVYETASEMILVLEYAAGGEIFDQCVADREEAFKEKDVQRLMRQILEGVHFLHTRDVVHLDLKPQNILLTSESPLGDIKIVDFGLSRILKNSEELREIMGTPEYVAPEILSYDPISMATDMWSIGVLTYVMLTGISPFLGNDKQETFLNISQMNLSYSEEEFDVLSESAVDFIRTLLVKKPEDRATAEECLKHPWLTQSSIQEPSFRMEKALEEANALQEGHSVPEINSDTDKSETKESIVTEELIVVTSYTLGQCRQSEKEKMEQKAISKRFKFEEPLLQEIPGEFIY
Test: Inhibition of DRAK1 at 1 uM

inhibition | Structure (SMILES)
> 80% | O=C1NCC2(CCOCC2)c2[nH]c(-c3ccnc(-c4ccc5c(c4)OCO5)n3)cc21
> 80% | COc1cncc(-c2nccc(-c3cc4c([nH]3)[C@]3(CCCNC3)CNC4=O)n2)c1
> 80% | O=C1NCC2(CCCNC2)c2[nH]c(-c3ccnc(-c4cccnc4)n3)cc21 (racemic)
> 80% | CC(=O)c1cccc(-c2nccc(-c3cc4c([nH]3)C3(CCNCC3)CNC4=O)n2)c1
> 80% | O=C1NC[C@@]2(CCCNC2)c2[nH]c(-c3ccnc(-c4ccc5c(c4)OCO5)n3)cc21
> 80% | CC(=O)c1ccc(-c2nccc(-c3cc4c([nH]3)C3(CCNCC3)CNC4=O)n2)cc1

Test system: THP-1
Test: Antiinflammatory activity in human THP1 cells assessed as inhibition of LPS-induced TNFalpha production pretreated 30 mins before LPS challenge measured after 4 hrs
Assay type: functional, cell-based

EC50 | Structure (SMILES)
> 10000 nM | O=C1NCC2(CCOCC2)c2[nH]c(-c3ccnc(-c4ccc5c(c4)OCO5)n3)cc21
2400 nM | COc1cncc(-c2nccc(-c3cc4c([nH]3)[C@]3(CCCNC3)CNC4=O)n2)c1
3000 nM | O=C1NCC2(CCCNC2)c2[nH]c(-c3ccnc(-c4cccnc4)n3)cc21 (racemic)
6200 nM | CC(=O)c1cccc(-c2nccc(-c3cc4c([nH]3)C3(CCNCC3)CNC4=O)n2)c1
850 nM | O=C1NC[C@@]2(CCCNC2)c2[nH]c(-c3ccnc(-c4ccc5c(c4)OCO5)n3)cc21
5000 nM | CC(=O)c1ccc(-c2nccc(-c3cc4c([nH]3)C3(CCNCC3)CNC4=O)n2)cc1

Target: Serine/threonine-protein kinase pim-1 (Homo sapiens) (UniProt P11309)
Sequence (P11309 whole entry, looked up): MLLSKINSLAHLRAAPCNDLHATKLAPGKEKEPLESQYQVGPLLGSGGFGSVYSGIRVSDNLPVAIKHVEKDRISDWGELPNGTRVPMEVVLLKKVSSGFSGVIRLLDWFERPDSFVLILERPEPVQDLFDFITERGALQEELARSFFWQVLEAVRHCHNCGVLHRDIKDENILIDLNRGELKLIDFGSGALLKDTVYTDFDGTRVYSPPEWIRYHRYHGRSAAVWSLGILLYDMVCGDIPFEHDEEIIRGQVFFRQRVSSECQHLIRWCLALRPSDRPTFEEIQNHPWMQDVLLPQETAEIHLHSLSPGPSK
Test: Inhibition of PIM1 at 1 uM

inhibition | Structure (SMILES)
> 80% | O=C1NCC2(CCOCC2)c2[nH]c(-c3ccnc(-c4ccc5c(c4)OCO5)n3)cc21
> 80% | COc1cncc(-c2nccc(-c3cc4c([nH]3)[C@]3(CCCNC3)CNC4=O)n2)c1
> 80% | O=C1NCC2(CCCNC2)c2[nH]c(-c3ccnc(-c4cccnc4)n3)cc21 (racemic)
> 80% | CC(=O)c1cccc(-c2nccc(-c3cc4c([nH]3)C3(CCNCC3)CNC4=O)n2)c1
> 80% | O=C1NC[C@@]2(CCCNC2)c2[nH]c(-c3ccnc(-c4ccc5c(c4)OCO5)n3)cc21
> 80% | CC(=O)c1ccc(-c2nccc(-c3cc4c([nH]3)C3(CCNCC3)CNC4=O)n2)cc1

Target: Mitogen-activated protein kinase 3 (Homo sapiens) (UniProt P27361)
Sequence (P27361 whole entry): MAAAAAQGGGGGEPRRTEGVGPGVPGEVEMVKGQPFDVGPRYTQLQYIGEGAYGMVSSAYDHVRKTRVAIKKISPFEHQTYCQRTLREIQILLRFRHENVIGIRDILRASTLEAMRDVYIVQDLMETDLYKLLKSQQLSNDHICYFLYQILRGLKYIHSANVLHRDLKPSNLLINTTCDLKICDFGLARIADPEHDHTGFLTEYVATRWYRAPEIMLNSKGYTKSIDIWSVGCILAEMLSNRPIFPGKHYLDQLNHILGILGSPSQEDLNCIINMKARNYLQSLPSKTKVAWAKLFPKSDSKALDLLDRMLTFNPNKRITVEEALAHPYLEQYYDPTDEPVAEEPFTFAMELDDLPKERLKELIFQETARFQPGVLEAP
Test: Inhibition of ERK1 at 1 uM

inhibition | Structure (SMILES)
> 80% | O=C1NCC2(CCOCC2)c2[nH]c(-c3ccnc(-c4ccc5c(c4)OCO5)n3)cc21
> 80% | COc1cncc(-c2nccc(-c3cc4c([nH]3)[C@]3(CCCNC3)CNC4=O)n2)c1
> 80% | O=C1NCC2(CCCNC2)c2[nH]c(-c3ccnc(-c4cccnc4)n3)cc21 (racemic)
> 80% | CC(=O)c1cccc(-c2nccc(-c3cc4c([nH]3)C3(CCNCC3)CNC4=O)n2)c1
> 80% | O=C1NC[C@@]2(CCCNC2)c2[nH]c(-c3ccnc(-c4ccc5c(c4)OCO5)n3)cc21
> 80% | CC(=O)c1ccc(-c2nccc(-c3cc4c([nH]3)C3(CCNCC3)CNC4=O)n2)cc1

Test system: PBMC
Test: Antiinflammatory activity in human PBMC cells assessed as inhibition of LPS-induced TNFalpha production pretreated 30 mins before LPS challenge measured after 4 hrs by ELISA
Assay type: functional, cell-based

Structure (SMILES) | EC50
COc1cncc(-c2nccc(-c3cc4c([nH]3)[C@]3(CCCNC3)CNC4=O)n2)c1 | 1300 nM
O=C1NCC2(CCCNC2)c2[nH]c(-c3ccnc(-c4cccnc4)n3)cc21 (racemic) | 3300 nM
O=C1NC[C@@]2(CCCNC2)c2[nH]c(-c3ccnc(-c4ccc5c(c4)OCO5)n3)cc21 | 450 nM

Target: Serine/threonine-protein kinase pim-3 (Homo sapiens) (UniProt Q86V86)
Test: Inhibition of PIM3 at 1 uM

inhibition | Structure (SMILES)
> 80% | O=C1NCC2(CCOCC2)c2[nH]c(-c3ccnc(-c4ccc5c(c4)OCO5)n3)cc21
> 80% | COc1cncc(-c2nccc(-c3cc4c([nH]3)[C@]3(CCCNC3)CNC4=O)n2)c1
> 80% | O=C1NCC2(CCCNC2)c2[nH]c(-c3ccnc(-c4cccnc4)n3)cc21 (racemic)
> 80% | CC(=O)c1cccc(-c2nccc(-c3cc4c([nH]3)C3(CCNCC3)CNC4=O)n2)c1
> 80% | O=C1NC[C@@]2(CCCNC2)c2[nH]c(-c3ccnc(-c4ccc5c(c4)OCO5)n3)cc21
> 80% | CC(=O)c1ccc(-c2nccc(-c3cc4c([nH]3)C3(CCNCC3)CNC4=O)n2)cc1

Test system: not listed separately
Test: Inhibition of p38

inhibition | Structure (SMILES)
inactive | O=C1NCC2(CCOCC2)c2[nH]c(-c3ccnc(-c4ccc5c(c4)OCO5)n3)cc21
inactive | COc1cncc(-c2nccc(-c3cc4c([nH]3)[C@]3(CCCNC3)CNC4=O)n2)c1
inactive | O=C1NCC2(CCCNC2)c2[nH]c(-c3ccnc(-c4cccnc4)n3)cc21 (racemic)
inactive | CC(=O)c1cccc(-c2nccc(-c3cc4c([nH]3)C3(CCNCC3)CNC4=O)n2)c1
inactive | O=C1NC[C@@]2(CCCNC2)c2[nH]c(-c3ccnc(-c4ccc5c(c4)OCO5)n3)cc21
inactive | CC(=O)c1ccc(-c2nccc(-c3cc4c([nH]3)C3(CCNCC3)CNC4=O)n2)cc1
